The test system of the first test is RSV A2. The test is described as follows: Screening for RSV inhibition using Viral ToxGlo assay (cytopathic effect inhibition in HEp-2 cells). It counts as cell-based, Respiratory Syncytial Virus (RSV). As to conditions: RSV A2 in HEp-2 cells, MOI 0.5, 72h p.i., cytopathic effect inhibition relative to virus control, Viral ToxGlo luminescence. The gist of the method:
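HEp-2 cells in 2% FBS medium infected with RSV A2 right after compound addition (max 1% DMSO), uninfected wells used for cytotoxicity. After 72 h p.i. at 37 °C/5% CO2, cell viability read by Viral ToxGlo luminescence as measure of cytopathic effect.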
Take `O=C(N=C1NCCN1)c1cc(F)c(Nc2cccc(C3=NCCN3)c2)c(C2CC2)c1` [Compound 169, 3-cyclopropyl-4-{[3-(4,5-dihydro-1H-imidazol-2-yl)phenyl]amino}-5-fluoro-N-(imidazolidin-2-ylidene)benzamide]: the EC50 was 13.6 nM.

The test is the same for the next values; noted with them: human respiratory syncytial virus; RSV A2 in HEp-2 cells, MOI 0.5, 72h p.i., cytopathic effect inhibition relative to virus control, Viral ToxGlo luminescence.
For `CC1(NC(=O)c2ccnc(Nc3c(F)cc(C(=O)N=C4NCCN4)cc3C3CC3)c2Cl)CC1` [Compound 136, 3-chloro-2-[(2-cyclopropyl-6-fluoro-4-{[imidazolidin-2-ylidene]carbamoyl}phenyl)amino]-N-(1-methylcyclopropyl)pyridine-4-carboxamide], the EC50 came out at 32 nM.

As to `CC1(NC(=O)c2cccc(Nc3ccc(C(=O)N=C4NCCN4)cc3C3CCCO3)c2Cl)CC1` (centres unmarked) [Compound 137, 4-({2-chloro-3-[(1-methylcyclopropyl)carbamoyl]phenyl}amino)-N-[imidazolidin-2-ylidene]-3-(oxolan-2-yl)benzamide], the EC50 is 204 nM.

As for `CC(C)NC(=O)c1cc(F)cc(Nc2ccc(C(=O)N=C3NCCN3)cc2C2CC2)c1F` [Compound 138, 3-[(2-cyclopropyl-4-{[imidazolidin-2-ylidene]carbamoyl}phenyl)amino]-2,5-difluoro-N-(propan-2-yl)benzamide], the EC50 stood at 233 nM. Consider `CC1(NC(=O)c2cc(F)cc(Nc3ccc(C(=O)N=C4NCCN4)cc3C3CC3)c2F)CC1` [Compound 139, 3-[(2-cyclopropyl-4-{[imidazolidin-2-ylidene]carbamoyl}phenyl)amino]-2,5-difluoro-N-(1-methylcyclopropyl)benzamide], for which the EC50 was 152 nM.

In the case of `CC1(NC(=O)c2cccc(Nc3ccc(C(=O)N=C4NCCN4)cc3C3CCCO3)c2)CC1` (centres unmarked) [Compound 140, N-[imidazolidin-2-ylidene]-4-({3-[(1-methylcyclopropyl)carbamoyl]phenyl}amino)-3-(oxolan-2-yl)benzamide], the EC50 stood at 227 nM. Same read-out and setting: in the case of `N#CC1(C(=O)Nc2cccc(Nc3ccc(C(=O)N=C4NCCN4)cc3C3CC3)c2)CC1` [Compound 141, 4-{[3-(1-cyanocyclopropaneamido)phenyl]amino}-3-cyclopropyl-N-[imidazolidin-2-ylidene]benzamide] it was 150 nM; in that of `O=C(N=C1NCCN1)c1cc(F)c(Nc2cccc(C(=O)N3CCOCC3C(F)(F)F)c2)c(C2CC2)c1` (centres unmarked) [Compound 142, 3-cyclopropyl-5-fluoro-N-[imidazolidin-2-ylidene]-4-({3-[3-(trifluoromethyl)morpholine-4-carbonyl]phenyl}amino)benzamide], 41.4 nM; in that of `CC1(NC(=O)c2cccc(Nc3c(F)cc(C(=O)N=C4NCCN4)cc3C3CC3)c2F)CC1` [Compound 143, 3-cyclopropyl-5-fluoro-4-({2-fluoro-3-[(1-methylcyclopropyl)carbamoyl]phenyl}amino)-N-[imidazolidin-2-ylidene]benzamide], 59.7 nM. On the same count and under the same terms, in the case of `O=C(N=C1NCCN1)c1cc(F)c(Nc2cccc(C(=O)N3CCOC(C(F)(F)F)C3)c2)c(C2CC2)c1` (centres unmarked) [Compound 144, 3-cyclopropyl-5-fluoro-N-[imidazolidin-2-ylidene]-4-({3-[2-(trifluoromethyl)morpholine-4-carbonyl]phenyl}amino)benzamide] it was 48.1 nM. The same measure, in the same setting: in the case of `O=C(N=C1NCCN1)c1cc(F)c(Nc2cccc(C(=O)N3CCOCC3)c2)c(C2CCCO2)c1` (centres unmarked) [Compound 145, 3-fluoro-N-[imidazolidin-2-ylidene]-4-{[3-(morpholine-4-carbonyl)phenyl]amino}-5-(oxolan-2-yl)benzamide] it was 475 nM; in that of `CC1(NC(=O)c2cccc(Nc3ncc(C(=O)N=C4NCCN4)cc3C3CC3)c2Cl)CC1` [Compound 146, 6-({2-chloro-3-[(1-methylcyclopropyl)carbamoyl]phenyl}amino)-5-cyclopropyl-N-[imidazolidin-2-ylidene]pyridine-3-carboxamide], 253 nM; in that of `CC1(NC(=O)c2ccnc(Nc3c(F)cc(C(=O)N=C4NCCN4)cc3C3CC3)c2F)CC1` [Compound 147, 2-[(2-cyclopropyl-6-fluoro-4-{[imidazolidin-2-ylidene]carbamoyl}phenyl)amino]-3-fluoro-N-(1-methylcyclopropyl)pyridine-4-carboxamide], 99.4 nM. With `CC(C)NC(=O)c1cc(F)cc(Nc2ccc(C(=O)N=C3NCCN3)cc2C2CC2)c1C1CC1` [Compound 148, 2-cyclopropyl-3-[(2-cyclopropyl-4-{[imidazolidin-2-ylidene]carbamoyl}phenyl)amino]-5-fluoro-N-(propan-2-yl)benzamide], the half-maximal effective concentration (EC50) came to 347 nM. On to `CC1(NC(=O)c2cccc(Nc3c(C#N)cc(C(=O)N=C4NCCN4)cc3C3CC3)c2)CC1` [Compound 149, 3-cyano-5-cyclopropyl-N-[imidazolidin-2-ylidene]-4-({3-[(1-methylcyclopropyl)carbamoyl]phenyl}amino)benzamide], for which the EC50 came to 45.8 nM. The same measure, in the same setting: in the case of `CC1(NC(=O)c2nccc(Nc3ccc(C(=O)N=C4NCCN4)cc3C3CC3)c2Cl)CC1` [Compound 150, 3-chloro-4-[(2-cyclopropyl-4-{[imidazolidin-2-ylidene]carbamoyl}phenyl)amino]-N-(1-methylcyclopropyl)pyridine-2-carboxamide] it was 263 nM. The same measure, in the same setting: in the case of `N#CC1(NC(=O)c2ccnc(Nc3c(F)cc(C(=O)N=C4NCCN4)cc3C3CC3)c2F)CC1` [Compound 152, N-(1-cyanocyclopropyl)-2-[(2-cyclopropyl-6-fluoro-4-{[imidazolidin-2-ylidene]carbamoyl}phenyl)amino]-3-fluoropyridine-4-carboxamide] it was 1140 nM; in that of `O=C(N=C1NCCN1)c1cc(F)c(Nc2nccc(C(=O)N3CCOCC3)c2Cl)c(C2CC2)c1` [Compound 153, 4-{[3-chloro-4-(morpholine-4-carbonyl)pyridin-2-yl]amino}-3-cyclopropyl-5-fluoro-N-[imidazolidin-2-ylidene]benzamide], 31.6 nM; in that of `O=C(N=C1NCCN1)c1cc(F)c(Nc2nccc(C(=O)N3C[C@H]4C[C@@H]3CO4)c2Cl)c(C2CC2)c1` [Compound 154, 4-({3-chloro-4-[(1R,4R)-2-oxa-5-azabicyclo[2.2.1]heptane-5-carbonyl]pyridin-2-yl}amino)-3-cyclopropyl-5-fluoro-N-[imidazolidin-2-ylidene]benzamide], 69.8 nM. On the same count and under the same terms, in the case of `O=C(N=C1NCCN1)c1cc(F)c(Nc2nccc(C(=O)N3C[C@@H]4C[C@H]3CO4)c2Cl)c(C2CC2)c1` [Compound 155, 4-({3-chloro-4-[(1S,4S)-2-oxa-5-azabicyclo[2.2.1]heptane-5-carbonyl]pyridin-2-yl}amino)-3-cyclopropyl-5-fluoro-N-[imidazolidin-2-ylidene]benzamide] it was 51.8 nM.

`O=C(N=C1NCCN1)c1cc(F)c(Nc2nccc(C(=O)N3CCOCC3)c2F)c(C2CC2)c1` [Compound 156, 3-cyclopropyl-5-fluoro-4-{[3-fluoro-4-(morpholine-4-carbonyl)pyridin-2-yl]amino}-N-[imidazolidin-2-ylidene]benzamide]: the EC50 is 40.7 nM.

For the compound `CC1(NC(=O)c2nccc(Nc3c(F)cc(C(=O)N=C4NCCN4)cc3C3CC3)c2Cl)CC1` [Compound 157, 3-chloro-4-[(2-cyclopropyl-6-fluoro-4-{[imidazolidin-2-ylidene]carbamoyl}phenyl)amino]-N-(1-methylcyclopropyl)pyridine-2-carboxamide], the 50% effective concentration (EC50) amounted to 26.6 nM.

For `O=C(N=C1NCCN1)c1cc(F)c(Nc2cccc(C(=O)N3CCOCC3)c2F)c(C2CC2)c1` [Compound 158, 3-cyclopropyl-5-fluoro-4-{[2-fluoro-3-(morpholine-4-carbonyl)phenyl]amino}-N—[imidazolidin-2-ylidene]benzamide], the EC50 stood at 6.8 nM. Still for that read-out and setting: in the case of `O=C(N=C1NCCN1)c1cc(F)c(Nc2nccc(C(=O)N3C[C@@H]4C[C@H]3CO4)c2F)c(C2CC2)c1` [Compound 159, 3-cyclopropyl-5-fluoro-4-({3-fluoro-4-[(1S,4S)-2-oxa-5-azabicyclo[2.2.1]heptane-5-carbonyl]pyridin-2-yl}amino)-N—[imidazolidin-2-ylidene]benzamide] it was 225 nM.

In the case of `CC(C)=CCn1nnc(-c2cccc(Nc3ccc(C(=O)/N=C4\NCCN4C)cc3C3CC3)c2)n1` [Compound 160, 3-cyclopropyl-4-({3-[2-(3-methylbut-2-en-1-yl)-2H-1,2,3,4-tetrazol-5-yl]phenyl}amino)-N-[1-methylimidazolidin-2-ylidene]benzamide], the EC50 stood at 545 nM. Consider `CC1(C(=O)Nc2cccc(Nc3ccc(C(=O)N=C4NCCN4)cc3C3CC3)c2)COC1` [Compound 161, N-{3-[(2-cyclopropyl-4-{[imidazolidin-2-ylidene]carbamoyl}phenyl)amino]phenyl}-3-methyloxetane-3-carboxamide], for which the concentration for a half-maximal effect (EC50) stood at 690 nM. Still for that read-out and setting: in the case of `CC1(C(=O)Nc2cccc(Nc3c(F)cc(C(=O)N=C4NCCN4)cc3C3CC3)c2)COC1` [Compound 163, N-{3-[(2-cyclopropyl-6-fluoro-4-{[imidazolidin-2-ylidene]carbamoyl}phenyl)amino]phenyl}-3-methyloxetane-3-carboxamide] it was 35 nM; in that of `O=C(N=C1NCCN1)c1cc(F)c(Nc2nccc(C(=O)NC34CC(C3)C4)c2Cl)c(C2CC2)c1` [Compound 164], 3.8 nM.

As to `CC1(NC(=O)c2cccc(Nc3ccc(C(=O)N=C4NCCN4)cc3C3CC3)c2Cl)CC1` [Compound 167, 4-({2-chloro-3-[(1-methylcyclopropyl)carbamoyl]phenyl}amino)-3-cyclopropyl-N-[imidazolidin-2-ylidene]benzamide], the EC50 was 17.8 nM.

For the origin of these results see patent publication US12617756B2 (ABIVAX, priority 2019, dated 2026).
